Values of other authors, collected in patent publication US6071925A (priority 1997, dated 2000).

Tests used:
LC 132 receptor = conditions: CHO(LC 132+) cells in culture
mice [1] = conditions: intra-cerebroventricular
mice [2] = conditions: intra-cerebroventricular; remark: listed apart in the source

Substance: OFQ: seventeen amino-acid-long peptide (F-G-G-F-T-G-A-R-K-S-A-R-K-L-A-N-Q), natural ligand for the G-protein coupled receptor OFQ-R
- effect on adenylate cyclase (LC 132 receptor): inhibits adenylate cyclase
- effect on locomotive activity (mice [1]): slowed down locomotive activity
- effect on nociception (mice [2]): induces hyperalgesia
